# Assay results as given in patent publication US20200069648A1, “HALOALLYLAMINE PYRAZOLE DERIVATIVE INHIBITORS OF LYSYL OXIDASES AND USES THEREOF” (Pharmaxis Ltd., priority 2017, published 2020).
# Where a name gives a salt, the structure may show the parent alone.
# How the values were obtained:
# [1] = biological target: T1, human recombinant SSAO/VAP-1 (Homo sapiens, UniProt Q16853); assay: Human recombinant SSAO/VAP-1 amine oxidase inhibition; format: biochemical; details: 30 min preincubation at 37° C., 600 μM benzylamine
# T1 construct: a cloned cDNA template corresponding to residues 34-763 of human SSAO/VAP-1; TEV cleavage site (N); made in house
# T1 sequence (Q16853 34-763): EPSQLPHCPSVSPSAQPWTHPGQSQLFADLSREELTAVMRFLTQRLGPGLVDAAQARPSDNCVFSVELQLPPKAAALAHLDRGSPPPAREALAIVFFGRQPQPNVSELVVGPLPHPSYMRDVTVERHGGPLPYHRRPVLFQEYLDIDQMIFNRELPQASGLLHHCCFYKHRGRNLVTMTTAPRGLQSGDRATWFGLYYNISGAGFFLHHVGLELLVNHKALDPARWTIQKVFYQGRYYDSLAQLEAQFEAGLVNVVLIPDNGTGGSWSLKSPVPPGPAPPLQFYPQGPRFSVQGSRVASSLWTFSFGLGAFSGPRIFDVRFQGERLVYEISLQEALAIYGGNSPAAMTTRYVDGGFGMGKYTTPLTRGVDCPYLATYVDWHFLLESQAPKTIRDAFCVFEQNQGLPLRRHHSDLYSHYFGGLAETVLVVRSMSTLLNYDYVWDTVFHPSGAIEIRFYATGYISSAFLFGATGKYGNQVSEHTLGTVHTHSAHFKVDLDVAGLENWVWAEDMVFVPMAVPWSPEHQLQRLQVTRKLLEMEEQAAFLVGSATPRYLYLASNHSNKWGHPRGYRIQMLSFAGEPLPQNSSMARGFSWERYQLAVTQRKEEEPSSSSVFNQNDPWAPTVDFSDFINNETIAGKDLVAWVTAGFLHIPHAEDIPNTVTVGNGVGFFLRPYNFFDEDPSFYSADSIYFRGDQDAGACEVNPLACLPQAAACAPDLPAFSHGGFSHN
# Experimental: Method to Determine the Ability of Compounds of Formula I to Inhibit Human Recombinant SSAO/VAP-1
# Human recombinant SSAO/VAP-1 amine oxidase activity was determined using the coupled colorimetric method as described for monoamine oxidase, copper-containing amine oxidases and related enzymes (Holt A. and Palcic M., A peroxidase-coupled continuous absorbance plate-reader assay for flavin monoamine oxidases, copper-containing amine oxidases and related enzymes. Nat Protoc 2006; 1: 2498-2505). Briefly, a cloned cDNA template corresponding to residues 34-763 of human SSAO/VAP-1, and incorporating a mouse Ig kappa (κ) signal sequence, N-terminal flag epitope tag and tobacco etch virus (TEV) cleavage site, was assembled in a mammalian expression vector (pLO-CMV) by Geneart AG. This vector containing human SSAO/VAP-1 residues was transfected into CHO-K1 glycosylation mutant cell line, Lec 8. A clone stably expressing human SSAO/VAP-1 was isolated and cultured in large scale. Active human SSAO/VAP-I was purified and recovered using immunoaffinity chromatography. This was used as the source for SSAO/VAP-1 activity. A high-throughput colorimetric assay was developed using either 96 or 384 well format. Briefly, in a standard 96 well plate assay 50 μL of purified human SSAO/VAP-1 (0.25 μg/mL) in 0.1 M sodium phosphate buffer (pH 7.4) was added into each well. Test compounds were dissolved in DMSO and tested in a Concentration Response Curve (CRC) with 4-11 data points, typically in the micromolar or nanomolar range after incubation with human SSAO/VAP-1 for 30 min at 37° C. After 30 min incubation, 50 μL of the reaction mixture containing 600 μM benzylamine (Sigma Aldrich), 120 μM Amplex Red (Sigma Aldrich) and 1.5 U/mL horseradish peroxidase (Sigma Aldrich) prepared in 0.1 M sodium phosphate buffer (pH 7.4) were added to the corresponding well. The fluorescence unit (RFU) was read every 2.5 min for 30 min at 37° C. excitation 565 nm and emission 590 (Optima; BMG labtech). The slope of the kinetics for each well was calculated using MARS data analysis software (BMG labtech) and this value was used to deduce the IC50 value (Dotmatics).
# Bovine LOX = biological target: T2, Bovine LOX (Bos taurus, UniProt P33072); assay: LOX amine oxidase inhibition, peroxidase-coupled Amplex Red assay; format: biochemical; details: 30 min preincubation at 37° C., putrescine substrate
# T2 sequence (P33072 170-418): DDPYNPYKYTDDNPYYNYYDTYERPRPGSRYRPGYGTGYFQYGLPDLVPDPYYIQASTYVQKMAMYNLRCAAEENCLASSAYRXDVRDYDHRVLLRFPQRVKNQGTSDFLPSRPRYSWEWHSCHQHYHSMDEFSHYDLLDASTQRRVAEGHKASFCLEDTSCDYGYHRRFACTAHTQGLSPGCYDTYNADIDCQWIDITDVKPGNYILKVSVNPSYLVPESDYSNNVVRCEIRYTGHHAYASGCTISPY
# Excerpt: Method to Determine the Ability of Compounds of the Invention to Inhibit LOX and LOXL1-4 from Different Sources
# Lysyl oxidase (LOX) is an extracellular copper dependent enzyme which oxidizes peptidyl lysine and hydroxylysine residues in collagen and lysine residues in elastin to produce peptidyl alpha-aminoadipic-delta-semialdehydes. […] There are five LOX family members; these are LOX, LOXL1, LOXL2, LOXL3 and LOXL4. LOX and LOXL family members can be acquired as recombinant active proteins from commercial sources, or extracted from animal tissues like bovine aorta, tendons, pig skin; or prepared from cell cultures. The inhibitory effects of the compounds of the present invention were tested against the given LOX-LOXL preparation using a high-throughput coupled colorimetric method (Holt A. and Palcic M., A peroxidase-coupled continuous absorbance plate-reader assay for flavin monoamine oxidases, copper-containing amine oxidases and related enzymes. Nat. Protoc. 2006; 1: 2498-2505). The assay was developed using either 384 or 96 well format. Briefly, in a standard 384 well plate assay 25 μL of a dilution of any of the isoenzymes and orthologues in 1.2 M urea, 50 mM sodium borate buffer (pH 8.2) were added into each well in the presence of 1 μM mofegiline and 0.5 mM pargyline (to inhibit SSAO and MAO-B and MAO-A, respectively). […] Twenty five μL of a reaction mixture containing twice the KM concentration of putrescine (Sigma Aldrich, e.g. 20 mM for LOX, or 10 mM for LOXL2 and LOXL3), 120 μM Amplex Red (Sigma Aldrich) and 1.5 U/mL horseradish peroxidase (Sigma Aldrich) prepared in 1.2 M urea, 50 mM sodium borate buffer (pH 8.2) were then added to the corresponding wells. The above volumes were doubled in the case of 96 wells plate. The fluorescence (RFU) was read every 2.5 min for 30 min at a range of temperatures from 37° to 45° C., excitation 565 nm and emission 590 (Optima; BMG labtech). The slope of the kinetics for each well was calculated using MARS data analysis software (BMG labtech) and this value was used to deduce the IC50 value (Dotmatics).
IC50 [1],IC50 (Bovine LOX),SMILES
> 30 µM,< 10 µM,"Cc1nn(C/C(F)=C/CN)c(C(=O)N(C)C)c1Cc1ccc(S(=O)(=O)N(C)C)cc1 [Compound 29, (Z)-1-(4-amino-2-fluorobut-2-enyl)-4-(4-(N,N-dimethylsulfamoyl)benzyl)-N,N,3-trimethyl-1H-pyrazole-5-carboxamide hydrochloride]"
> 30 µM,< 10 µM,"CCOC(=O)c1nn(C/C(F)=C/CN)c(C)c1Cc1ccc(S(=O)(=O)N(C)C)cc1 [Compound 28, (Z)-ethyl 1-(4-amino-2-fluorobut-2-enyl)-4-(4-(N,N-dimethylsulfamoyl)benzyl)-5-methyl-1H-pyrazole-3-carboxylate hydrochloride]"
> 30 µM,< 10 µM,"Cc1c(Cc2ccc(S(=O)(=O)N(C)C)cc2)c(C(=O)N(C)C)nn1C/C(F)=C/CN [Compound 32, (Z)-1-(4-amino-2-fluorobut-2-enyl)-4-(4-(N,N-dimethylsulfamoyl)benzyl)-N,N,5-trimethyl-1H-pyrazole-3-carboxamide hydrochloride]"
< 10 µM,< 10 µM,"Cc1nn(C/C(F)=C/CN)c(C)c1Cc1ccc(S(C)(=O)=O)cc1Cl [Compound 12, (Z)-4-(4-(2-chloro-4-(methylsulfonyl)benzyl)-3,5-dimethyl-1H-pyrazol-1-yl)-3-fluorobut-2-en-1-amine hydrochloride]"
< 10 µM,< 10 µM,"CNS(=O)(=O)c1ccc(Cn2nc(C)c(C/C(F)=C/CN)c2C)c(Cl)c1 [Compound 20, (Z)-4-((4-(4-amino-2-fluorobut-2-en-1-yl)-3,5-dimethyl-1H-pyrazol-1-yl)methyl)-3-chloro-N-methylbenzenesulfonamide hydrochloride]"
< 10 µM,< 10 µM,"CNS(=O)(=O)c1cc(F)c(Cn2nc(C)c(C/C(F)=C/CN)c2C)cc1F [Compound 26, (Z)-4-((4-(4-amino-2-fluorobut-2-en-1-yl)-3,5-dimethyl-1H-pyrazol-1-yl)methyl)-2,5-difluoro-N-methylbenzenesulfonamide hydrochloride]"
> 30 µM,< 10 µM,"CNS(=O)(=O)c1ccc(Cn2nc(C)c(C/C(F)=C/CN)c2C)c(C(F)(F)F)c1 [Compound 23, (Z)-4-((4-(4-amino-2-fluorobut-2-en-1-yl)-3,5-dimethyl-1H-pyrazol-1-yl)methyl)-N-methyl-3-(trifluoromethyl)benzenesulfonamide hydrochloride]"
> 30 µM,> 10 µM,"Cc1nn(C/C(F)=C/CN)c(C(=O)N(C)C)c1Cc1ccc(S(=O)(=O)N(C)C)c(Cl)c1 [Compound 61, (Z)-1-(4-amino-2-fluorobut-2-en-1-yl)-4-(3-chloro-4-(N,N-dimethylsulfamoyl)benzyl)-N,N,3-trimethyl-1H-pyrazole-5-carboxamide hydrochloride]"
> 10 µM,< 10 µM,"CNS(=O)(=O)c1ccc(Cn2nc(C)c(C/C(F)=C/CN)c2C)cc1Cl [Compound 22, (Z)-4-((4-(4-amino-2-fluorobut-2-en-1-yl)-3,5-dimethyl-1H-pyrazol-1-yl)methyl)-2-chloro-N-methylbenzenesulfonamide hydrochloride]"
> 30 µM,< 10 µM,"Cc1nn(C/C(F)=C/CN)c(C)c1Cc1cc(F)c(S(=O)(=O)N(C)C)cc1F [Compound 19, (Z)-4-((1-(4-amino-2-fluorobut-2-en-1-yl)-3,5-dimethyl-1H-pyrazol-4-yl)methyl)-2,5-difluoro-N,N-dimethylbenzenesulfonamide hydrochloride]"
> 10 µM,< 10 µM,"Cc1nn(C/C(F)=C/CN)c(C)c1Cc1ccc(S(=O)(=O)N2CCCC2)cc1 [Compound 7, (Z)-4-(3,5-dimethyl-4-(4-(pyrrolidin-1-ylsulfonyl)benzyl)-1H-pyrazol-1-yl)-3-fluorobut-2-en-1-amine hydrochloride]"
> 30 µM,< 10 µM,"Cc1nn(C/C(F)=C/CN)c(C(=O)NC(C)(C)C)c1Cc1ccc(S(=O)(=O)N(C)C)c(Cl)c1 [Compound 62, (Z)-1-(4-amino-2-fluorobut-2-en-1-yl)-N-(tert-butyl)-4-(3-chloro-4-(N,N-dimethylsulfamoyl)benzyl)-3-methyl-1H-pyrazole-5-carboxamide hydrochloride]"
< 10 µM,< 10 µM,"Cc1nn(Cc2ccc(S(C)(=O)=O)cc2Cl)c(C)c1C/C(F)=C/CN [Compound 21, (Z)-4-(1-(2-chloro-4-(methylsulfonyl)benzyl)-3,5-dimethyl-1H-pyrazol-4-yl)-3-fluorobut-2-en-1-amine hydrochloride]"
> 30 µM,< 10 µM,"CCOC(=O)c1c(Cc2ccc(S(=O)(=O)N(C)C)cc2)c(C)nn1C/C(F)=C/CN [Compound 27, (Z)-ethyl 1-(4-amino-2-fluorobut-2-enyl)-4-(4-(N,N-dimethylsulfamoyl)benzyl)-3-methyl-1H-pyrazole-5-carboxylate hydrochloride]"
> 30 µM,> 10 µM,"Cc1nn(C/C(F)=C/CN)c(C)c1Cc1cccc(S(=O)(=O)N(C)C)c1 [Compound 5, (Z)-3-((1-(4-amino-2-fluorobut-2-en-1-yl)-3,5-dimethyl-1H-pyrazol-4-yl)methyl)-N,N-dimethyl benzenesulfonamide hydrochloride]"
> 10 µM,> 10 µM,"Cc1nn(C/C(F)=C/CN)c(C)c1Cc1ccc(S(=O)(=O)N(C)C)c(OC(F)(F)F)c1 [Compound 17, (Z)-4-((1-(4-amino-2-fluorobut-2-en-1-yl)-3,5-dimethyl-1H-pyrazol-4-yl)methyl)-N,N-dimethyl-2-(trifluoromethoxy)benzenesulfonamide hydrochloride]"

SMILES,IC50 [1],IC50 (Bovine LOX)
"N#CCCN [BAPN, β-aminopropionitrile, reference compound]",> 100 µM,< 1 µM
